The text below walks through data of publication PMC12627862, “Therapeutic targeting of endothelial calcium signaling accelerates the resolution of lung injury” (Signal Transduction and Targeted Therapy, 2025).

A short description of series [1]: Aggregation / solubility at 1 mM. It is filed as physicochemical. To be noted: summary calls it solubility at 1mM. The essentials: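 Solubility and aggregation of compounds were assessed experimentally at 1 mM. Lipophilicity was determined as octanol/water partition coefficient, logP(oct/wat).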
Series [2] in a line: Lipophilicity of peptides, logP(oct/wat). It is filed as physicochemical. In outline:
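Shake-flask partition between n-octanol and phosphate buffer, each phase pre-saturated with the other; peptides dissolved in buffer, partitioned at several octanol:water ratios, shaken 1 h at room temperature. After equilibration both phases assayed for peptide; logP = log(octanol/water concentration ratio).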

For series [3], the target named is EB3 interactions with IP3R3-GFP (Homo sapiens, UniProt Q9UPY8). Nature of the series: Competitive binding: inhibition of EB3 interaction with IP3R3-GFP in vitro. The settings on record: 250 nM. It is filed as biochemical. From the text:
We tested the efficacy of twenty-three compounds in inhibiting EB3 interactions with IP3R3-GFP via an in vitro approach developed by us[12],[13]. […] Guided by NMR studies, we predicted the binding pose of 109 to EB3 via AutoDock Vina[13],[24],[25].

For series [4], the system named is human primary microvascular lung endothelial cells (HLMVECs). Nature of the series: Peptide uptake in endothelial cells. In kind it is cell-based. Here is the method:
We next analyzed the cell-penetrating properties of the selected compounds, hereafter referred to as vascular therapeutics (VT). The rate of uptake of 5’6-FAM (fluorescein)-labeled compounds by human primary microvascular lung endothelial cells (HLMVECs) was determined via confocal fluorescence live-cell imaging. FAM-labeled Myr-EBIN[13] and fluorescein alone were used as positive and negative controls, respectively. The t½ uptake and maximal uptake were determined from changes in the integrated fluorescence intensity over a 30 min period (Fig. 2a and Supplementary Fig. 1a). […] Like Myr-EBIN, compounds VT-107, -108 and -109 presented the highest uptake rates of 92.5 ± 5.0%, 82.5 ± 2.8% and 94.7 ± 4.9%, respectively, whereas the linear compound VT-101 was taken up less efficiently, with an average uptake of 58.4 ± 2.7% (Fig. 2a). […] The t½ uptake, however, varied between the tested compounds (Fig. 2b). The stapled compounds presented the shortest t½ uptake, whereas the linear compounds presented the longest t½ (Fig. 2b).
Peptide uptake in endothelial cells. The rate of peptide uptake by primary human microvascular endothelial cells was measured using 5’6FAM (fluorescein)-labeled peptides and confocal fluorescence live-cell imaging, with fluorescein alone used as a negative control. Changes in intracellular fluorescence for each peptide were monitored over time, and saponin, a detergent, was added at the end of the experiment to induce full uptake of the tested peptides by endothelial cells. The fluorescence intensity inside the cells was tracked over time, and the half-time uptake (t1/2) and maximum uptake were calculated.

The nature of series [5]: Stability of selected EB3 inhibitors in human blood plasma. In kind it is in vitro ADME. Here is the method: Supplementary Table 3. Stability of selected EB3 inhibitors in human blood plasma. The indicated inhibitors were incubated with human plasma at 37 °C and samples were taken at the indicated time points. Plasma proteins were precipitated with ice-cold perchloric acid (60%); the concentration of compounds was measured in supernatant using a liquid chromatography-tandem mass spectrometry (LC-MS/MS). See also Figures 1 and 2.

The nature of series [6]: Stability at various storage conditions. In kind it is physicochemical. To be noted: for amount of peptide remaining after storage: phosphate-buffered sterile saline, 8 days, LC-MS/MS. Here is the method:
Stability assay of peptides in various storage conditions. Peptides were dissolved and stored in phosphate-buffered sterile saline at -20, 4, 37, and 60°C for 8 days. The amount of peptide remaining after the study was analyzed by LC-MS/MS.
Supplementary Table 5. Stability of selected compounds at various storage conditions. Preliminary accelerated storage stability at various temperature conditions for the selected inhibitors was tested in phosphate-buffered sterile saline at -20 °C, 4 °C, 37 °C and 60 °C for 8 days. See also Figures 1 and 2.

The next series has as its system HLMVECs. Nature of the series: Transendothelial electrical resistance (TEER) assay. It is filed as cell-based, human. To be noted: 1 µM, 1 hour pretreatment, 50 nM α-thrombin; to the same extent as EBIN.
The test system of series [7] is mice challenged with a PAR-1 agonist peptide. Nature of the series: PAR-1 agonist peptide-induced microvascular leakage in lung. The settings on record: i.v. 1 µmol/kg bw pretreatment; n = 5–7 mice per group. In kind it is in vivo, mouse. Here is the method: The levels of EBA extravasation in the lungs of mice challenged with PAR-1 AP and treated with these compounds were similar to those observed in control mice treated with a control PAR-1 AP ([…]-NH2), in which the positions of the first two amino acids were reversed.
PAR-1 agonist peptide-induced microvascular leakage in lung. […] Mice treated with PAR-1 control peptide ([…]-NH2) was used as negative control. For Evan’s blue albumin extravasation, Evans’s blue-labeled albumin was administered at the same time as the PAR-1 AP. Vehicle-treated mice were used as treatment control.
Evans’ blue-labeled albumin extravasation. To evaluate vascular permeability in lung tissues, mice were injected intravenously with Evans' blue-labeled albumin (25 mg/kg) 30 minutes before the collection of lung tissues. The lungs were perfused via the right ventricle with warmed phosphate-buffered saline to remove intravascular dye, and the right atrium was excised to facilitate clearance. […] The optical density of the supernatant was measured spectrophotometrically at 620 nm (Evans Blue) and 740 nm (hemoglobin correction), with the dye content normalized to the wet weight of the lungs. Corrections for hemoglobin were made as follows: Corrected absorbance (Evans blue) = Absorbance (620) - (1.426 × Absorbance (740) + 0.03). […]

Where two headings read alike, the source gives them in different places. Starred links: 1 amine or outer side, 2 acyl side, 3 side chain; linkers in the order of their positions; H or OH if unused. Positions of bridges follow the written chain, without caps; N, C: chain ends. Non-standard residues stand in square brackets, D forms with d. Residues, ends and D or L forms follow the SMILES beside them. ξ: configuration not given here. X2 = C[C@@](CCCCC=[*:3])(N[*:1])C(=O)[*:2]; Oic = O=C(O)[C@@H]1C[C@@H]2CCCC[C@@H]2N1; GABOB(3R) = O=C(C[C@@H](O)CN[*:1])[*:2]; d(tBuAla) = CC(C)(C)C[C@@H](N)C(=O)O; dVal(3-OH) = CC(C)(O)[C@@H](N)C(=O)O; tBuAla = CC(C)(C)C[C@H](N)C(=O)O; ξVal(3-OH) = CC(C)(O)C(N)C(=O)O; R5 = C=CCCC[C@@](C)(N)C(=O)O; X1 = O=C(CC(O)CN[*:1])[*:2]; 4Amb = NCc1ccc(C(=O)O)cc1

Chain of EB3 interactions with IP3R3-GFP (Q9UPY8 whole entry): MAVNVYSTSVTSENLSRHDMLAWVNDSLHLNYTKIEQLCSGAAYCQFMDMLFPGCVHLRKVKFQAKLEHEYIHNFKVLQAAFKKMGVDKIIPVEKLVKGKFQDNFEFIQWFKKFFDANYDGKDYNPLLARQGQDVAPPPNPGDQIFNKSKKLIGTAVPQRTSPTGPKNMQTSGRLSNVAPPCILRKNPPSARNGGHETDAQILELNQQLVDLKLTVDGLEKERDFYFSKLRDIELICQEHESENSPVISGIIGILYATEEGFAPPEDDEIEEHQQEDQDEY

As for `CC(C)(C)C[C@@H]1NC(=O)[C@](C)(NC(=O)c2ccc(CNC(=O)[C@H](N)C(C)(C)O)cc2)CCC/C=C\CCCC[C@@](C)(C(=O)N[C@H](CC(C)(C)C)C(=O)O)NC(=O)CC(O)CNC(=O)[C@@H]2C[C@@H]3CCCC[C@@H]3N2C1=O` (stereo partly drawn) [compound 108, (2R)-2-((8S,18R,21S,23aS,27aS,28aS,Z)-18-(4-(((R)-2-amino-3-hydroxy-3-methylbutanamido)methyl)benzamido)-4-hydroxy-8,18-dimethyl-21-neopentyl-1,6,19,22-tetraoxo-1,2,3,4,5,6,7,8,9,10,11,12,15,16,17,18,19,20,21,22,23a,24,25,26,27,27a,28,28a-octacosahydro-[1,4,7,12]tetraazacyclotetracosino[4,5-a]indole-8-carboxamido)-4,4-dimethylpentanoic acid] (H-[dVal(3-OH)][4Amb][R5][tBuAla][Oic][X1][X2][d(tBuAla)]-OH; staple (Z) 3-7), in series [1], the “Aggregation at 1mM” value is listed as “weak signal”. The logD in series [2] (shake-flask n-octanol/phosphate buffer, mutually saturated, shaken 1 hour at room temperature, read-out: Log P (Octanol/Water)) was determined as 0.46. Also, the inhibition (as a rule, the relative decrease from the control value, in per cent) at 0.25 µM in series [3] amounted to 55%. For the same compound, the “uptake, percentage of the maximal values obtained following saponin treatment” value in series [4] (5’6-FAM-labeled compounds, HLMVECs, confocal live-cell imaging over 30 min, mean ± SEM, n = 16–45 cells per group) was found to be 82.5 ± 2.8%. For the same compound, the “half-time uptake t1/2” value in series [4] (5’6-FAM-labeled compounds, HLMVECs, confocal live-cell imaging, n = 3 independent experiments) is recorded as 0.36 ± 0.12 min. In series [4] (5’6-FAM-labeled compounds, HLMVECs, no cell internalization signal), the “penetration of the cell membrane” value was “able to penetrate the cell membrane without the addition of a cell internalization signal”. In series [5] (human plasma, 37 °C, 1.5 hr, perchloric acid (60%) precipitation, LC-MS/MS, read-out: compound remaining in human plasma), the share remaining – broadly, the share of the starting amount still present when the sample was taken – at 1.5 h stood at 80%. Also, the fraction remaining at 20 h in series [5] (human plasma, 37 °C, 20 hr, perchloric acid (60%) precipitation, LC-MS/MS, read-out: compound remaining in human plasma) turned out to be 65%. The “amount of peptide remaining after storage” value in series [6] (4 °C) was found to be 102%; in series [6] (37 °C), 104%; in series [6] (60 °C), 104%; in series [6] (-20 °C), 104%. The storage stability entry in series [6] (various storage and temperature conditions) is “stable”. Besides, in the series on HLMVECs, the “α-thrombin-induced changes in TEER” value is “attenuated”. Also, in series [7], the “PAR-1-mediated capillary leakage in the lung (EBA extravasation)” value is “completely blocked”.

`CC(C)(C)C[C@@H]1NC(=O)C[C@@H](O)CNC(=O)[C@@H]2C[C@@H]3CCCC[C@@H]3N2C(=O)[C@H](CC(C)(C)C)NC(=O)c2ccc(cc2)CNC(=O)C(C(C)(C)O)NC(=O)[C@@H](Cc2ccccc2)NC1=O` (stereo partly drawn) [compound 109, (1^2S,1^3aS,1^7aS,3S,10S,13R,16S,20R)-13-benzyl-20-hydroxy-10-(2-hydroxypropan-2-yl)-3,16-dineopentyl-1^2,1^3,1^3a,1^4,1^5,1^6,1^7,1^7a-octahydro-1^1H-4,8,11,14,17,22-hexaaza-1(1,2)-indola-6(1,4)-benzenacyclotricosaphane-2,5,9,12,15,18,23-heptaone.] (cyclo([4Amb][tBuAla][Oic][GABOB(3R)][tBuAla][dF][ξVal(3-OH)])): in series [1], the “Aggregation at 1mM” value is listed as “weak signal”. In addition, in series [2], the logD worked out at 0.73. In addition, the inhibition at 0.25 µM in series [3] turned out to be 58%. In addition, in series [4], the “half-time uptake t1/2” value is recorded as 3.42 ± 0.01 min and the “penetration of the cell membrane” value is “able to penetrate the cell membrane without the addition of a cell internalization signal”. In series [5] (human, plasma), this compound had a fraction remaining at 1.5 h of 90% and a fraction remaining at 20 h of 91%. Moreover, the storage stability result in series [6] was “stable”. Also, the “α-thrombin-induced changes in TEER” value in the series on HLMVECs is given as “attenuated”. Further, the “PAR-1-mediated capillary leakage in the lung (EBA extravasation)” value in series [7] is “completely blocked”.
